Laboratory results published in the PolyMetriX glass transition set.
± gives the standard deviation of the reports.

Row | glass transition temperature | Structure (SMILES)
1 | 199.50 °C | *Nc1ccc(NC(=O)c2ccc(NC(=O)CCCCCCCCCCC(=O)Nc3ccc(C(*)=O)cc3)cc2)cc1C(=O)OCCCCCCCCCCCCCCCC (repeat unit)
2 | 302.00 °C | *C(=O)Nc1cccc(NC(=O)c2ccc3[nH]c(-c4cccc(-c5nc6cc(*)ccc6[nH]5)c4)nc3c2)n1 (repeat unit)
3 | 113.00 °C | *CC(*)(C)C(=O)OCCCn1c2ccccc2c2ccccc21 (repeat unit)
4 | -57 ± 6.6 °C | *CCCCCCCCCCOC(=O)CCCCC(=O)O* (repeat unit) [Poly(decamethylene adipate) ]
5 | 275.00 °C | *Oc1ccc(C(c2ccc(Oc3ccc(C(=O)c4c(C(=O)c5ccc(*)cc5)c(-c5ccccc5)c(-c5ccc6ccccc6c5)c(-c5ccc6ccccc6c5)c4-c4ccccc4)cc3)cc2)(C(F)(F)F)C(F)(F)F)cc1 (repeat unit)
6 | 180.00 °C | *CC(CC(*)(C#N)C#N)c1ccc(Cl)cc1 (repeat unit)
7 | 253.50 °C | *c1ccc(Oc2cc3ccccc3cc2Oc2ccc(N3C(=O)c4ccc(-c5ccc6c(c5)C(=O)N(*)C6=O)cc4C3=O)cc2)cc1 (repeat unit)
8 | 282.50 °C | *c1ccc(OC(=O)c2cccc(C(=O)Oc3ccc(C4(*)OC(=O)c5ccccc54)cc3)c2)cc1 (repeat unit)
9 | 233.00 °C | *Oc1c(C)cc(-c2cc(C)c(Oc3ccc(C(=O)c4ccccc4-c4ccccc4C(=O)c4ccc(*)cc4)cc3)c(C)c2)cc1C (repeat unit)
10 | 237.00 °C | *c1ccc(-c2ccc(-c3ccc(-c4ccc(-c5ccc6c(c5)C(=O)N(c5cccc(N7C(=O)c8ccc(*)cc8C7=O)c5)C6=O)cc4)cc3)cc2)cc1 (repeat unit)
11 | -4.80 °C | *CCCCOCCCCOCCCCOC(=O)c1ccc(/N=C/c2cc(OCCC(C)CCCC(C)C)c(/C=N/c3ccc(C(=O)O*)cc3)cc2OCCC(C)CCCC(C)C)cc1 (repeat unit)
12 | 116.90 °C | *CCOC(=O)Nc1ccc(CCc2ccc(NC(=O)O*)cc2)cc1 (repeat unit)
13 | 33.00 °C | *CC(O)COC(=O)CCCCC(=O)OCC(O)COc1ccc(/C=C(\C)c2ccc(O*)cc2)cc1 (repeat unit)
14 | 118.00 °C | *CC(F)(F)C1(F)CC(C(O)(C(F)(F)F)C(F)(F)F)CC1* (repeat unit)
15 | 150.00 °C | *Nc1ccccc1CCc1ccc(NC(=O)NCCCCCCNC(*)=O)cc1 (repeat unit)
16 | 74.50 °C | *c1ccc2c(c1)C(CCCCCC)(CCCCCC)c1cc(-c3cc(CCCCCCCC)c(*)cc3CCCCCCCC)ccc1-2 (repeat unit)
17 | 49.80 °C | *CC(OC(=O)OCC)C(COC(=O)O*)OC(=O)OCC (repeat unit)
18 | 197.00 °C | *Oc1ccc(C2(c3ccc(OC(=O)CCCC(*)=O)cc3)c3cc(OC)ccc3-c3ccc([N+](=O)[O-])cc32)cc1 (repeat unit)
19 | 245.00 °C | *c1ccc(Oc2ccc(N3C(=O)c4ccc(Oc5ccc6ccc(Oc7ccc8c(c7)C(=O)N(*)C8=O)cc6c5)cc4C3=O)cc2)cc1 (repeat unit)
20 | 95.00 °C | *NCCCCCCNc1nc(*)nc(-c2ccccc2)n1 (repeat unit)
21 | 37.00 °C | *CC(*)(C)C(=O)OCCOCCOCCOc1ccc(/N=N/c2ccc(C#N)cc2)cc1 (repeat unit)
22 | 253.00 °C | *c1ccc(Oc2ccc(C(c3ccc(Oc4ccc(-n5c(=O)c6cc7c(=O)n(*)c(=O)c7cc6c5=O)cc4C(F)(F)F)cc3)(C(F)(F)F)C(F)(F)F)cc2)c(C(F)(F)F)c1 (repeat unit)
23 | 322.00 °C | *C(=O)c1ccc2c(c1)C(=O)N(c1ccc(C(C)(C)c3ccc(C(C)(C)c4ccc(N5C(=O)c6ccc(*)cc6C5=O)cc4)cc3)cc1)C2=O (repeat unit)
24 | 23.00 °C | */C=C/C(C*)COCC(=O)OCCCCCCCCOc1ccc(/C=C/c2ccc([N+](=O)[O-])cc2)cc1 (repeat unit)
25 | 211.00 °C | *C(=O)Nc1ccc(Cc2ccc(NC(=O)c3ccc4c(c3)C(=O)N(c3ccc(NC(=O)Nc5ccc(N6C(=O)c7ccc(*)cc7C6=O)cc5)cc3)C4=O)cc2)cc1 (repeat unit)
26 | 123.00 °C | *Oc1ccc(C(=O)c2cccc(-c3cccc(C(=O)c4ccc(*)cc4)c3)c2)cc1 (repeat unit)

Row | glass transition temperature | Structure (SMILES)
27 | 222.00 °C | *c1ccc(Oc2ccc(Oc3ccc(N4C(=O)c5ccc(Oc6ccc(-c7ccc(Oc8ccc9c(c8)C(=O)N(*)C9=O)cc7)cc6)cc5C4=O)cc3)cc2)cc1 (repeat unit)
28 | 250.00 °C | *c1ccc2c(c1)C(=O)N(c1ccc(Oc3ccc(N4C(=O)c5ccc(C(*)O)cc5C4=O)cc3)cc1)C2=O (repeat unit)
29 | 61.10 °C | *O[Si](*)(C)CCCCCCCCCCC(=O)Oc1ccc(-c2ccc(OC(=O)c3ccc(OCCCCCCC)cc3)cc2)cc1 (repeat unit)
30 | 260.50 °C | *C(=O)c1cc(C(=O)c2ccc3c(c2)C(=O)N(c2ccc(C(c4ccc(N5C(=O)c6ccc(*)cc6C5=O)cc4)(C(F)(F)F)C(F)(F)F)cc2)C3=O)cc(-c2ccccc2)c1 (repeat unit)
31 | 207.00 °C | *c1ccc(Oc2ccc(C(C)(C)c3ccc(Oc4ccc(-c5nnc(*)n5-c5ccccc5)cc4)cc3)cc2)cc1 (repeat unit)
32 | 37.73 °C | *Oc1ccc(CC(NC(=O)CCc2ccc(OC(=O)CCCCC(*)=O)cc2)C(=O)OCCCCCC)cc1 (repeat unit)
33 | 15.00 °C | *c1cccc(OCCCCCCCCCCCOC(=O)c2cccc(C(=O)OCCCCCCCCCCCOc3cccc(-c4nnc(*)s4)c3)c2)c1 (repeat unit)
34 | 227.00 °C | *Oc1ccc(C(=O)Nc2ccc(C(c3ccc(NC(=O)c4ccc(OC(=O)c5cccc(C(*)=O)c5)cc4)cc3)(C(F)(F)F)C(F)(F)F)cc2)cc1 (repeat unit)
35 | 266.00 °C | *c1ccc(Oc2ccc3c(c2)C(=O)N(*)C3=O)cc1 (repeat unit)
36 | 240.00 °C | *Oc1ccc(C(c2ccc(Oc3ccc(C(=O)Nc4ccc(-c5ccc(NC(=O)c6ccc(*)cc6)cc5C(F)(F)F)c(C(F)(F)F)c4)cc3)cc2)(C(F)(F)F)C(F)(F)F)cc1 (repeat unit)
37 | 230.00 °C | *Oc1ccc(C(c2ccc(OC(*)=O)cc2)C(Cl)(Cl)Cl)cc1 (repeat unit)
38 | 27.7 °C | */C=C/C1=C(*)CC(C(=O)OCC)(C(=O)OCC)C1 (repeat unit)
39 | 106.00 °C | *=Nc1ccc(Cc2ccc(NC(=*)CCCC)cc2)cc1 (repeat unit)
40 | 63.00 °C | *CC(*)(F)C(=O)OCC(F)(F)C(F)(F)C(F)(F)C(F)(F)F (repeat unit)
41 | 199.00 °C | *C(=O)Nc1cccc(Oc2cccc(Oc3cccc(Oc4cccc(Oc5cccc(NC(=O)c6ccc7c(c6)C(=O)N(c6ccc(Oc8cccc(Oc9ccc(N%10C(=O)c%11ccc(*)cc%11C%10=O)cc9)c8C#N)cc6)C7=O)c5)c4C#N)c3)c2C#N)c1 (repeat unit)
42 | 14.00 °C | *OC(F)(F)COC(=O)c1cc(OCCCCC)cc(C(=O)OCC(*)(F)F)c1 (repeat unit)
43 | 254.00 °C | *C1C(*)C2CC1C(C(=O)OCCc1ccccc1)C2C(=O)OCCc1ccccc1 (repeat unit)
44 | 270.00 °C | *Oc1c(C)cc(-c2cc(C)c(Oc3ccc(C(=O)c4ccc5cc(C(=O)c6ccc(*)cc6)ccc5c4)cc3)c(C)c2)cc1C (repeat unit)
45 | 172.00 °C | *CCCCCCN1C(=O)C(=O)N(c2ccc(Oc3ccc(N4C(=O)C(=O)N(*)C4=O)cc3)cc2)C1=O (repeat unit)
46 | 222.00 °C | *c1ccc2c(c1)C(=O)N(c1ccc(Oc3ccc(N4C(=O)c5ccc(C(F)(F)C(F)(F)C(*)(F)F)cc5C4=O)cc3)cc1)C2=O (repeat unit)
47 | 177.00 °C | *Nc1ccc(C(C)(C)c2ccc(C(C)(C)c3ccc(Nc4ccc(C(O)(c5ccccc5)c5ccc(C(O)(c6ccccc6)c6ccc(*)cc6)cc5)cc4)cc3)cc2)cc1 (repeat unit)
48 | 125.00 °C | *Cc1ccc(CNC(=O)CC(C)(C)CC(C)C(=O)N*)cc1 (repeat unit)
49 | 335.00 °C | *c1ccc2c(c1)C(=O)N(c1cc(N3C(=O)c4ccc(C(*)(C(F)(F)F)C(F)(F)F)cc4C3=O)ccc1C)C2=O (repeat unit)
50 | 290.00 °C | *Oc1ccc(-c2ccc(Oc3ccc(C(=O)c4c(C(=O)c5ccc(*)cc5)c(-c5ccccc5)c(-c5ccc6ccccc6c5)c(-c5ccc6ccccc6c5)c4-c4ccccc4)cc3)cc2)cc1 (repeat unit)
51 | 122.00 °C | *OC(COC(=O)c1ccc(C(*)=O)cc1)COc1ccc(/N=N/c2ccc(C#N)cc2)cc1 (repeat unit)

Row | Structure (SMILES) | glass transition temperature
52 | *CC(*)OC(=O)c1cccc(C)c1 (repeat unit) | 49.00 °C
53 | *Oc1ccc(P(C)(=O)c2ccc(Oc3ccc(P(=O)(c4ccccc4)c4ccc(*)cc4)cc3)cc2)cc1 (repeat unit) | 238.00 °C
54 | *CCCCCCCCNC(=O)CCP(C)(=O)CCC(=O)N* (repeat unit) | 52.00 °C
55 | *CCOC(=O)/C=C/C(=O)O* (repeat unit) | -10.00 °C
56 | *CCOC(=O)C1CCC(C(=O)O*)CC1 (repeat unit) | 25.00 °C
57 | *CC(*)c1cccc(O)c1 (repeat unit) | 169.00 °C
58 | *CCN(*)C(=O)c1ccc(F)c(F)c1F (repeat unit) | 102.00 °C
59 | *CC(*)C(=O)c1ccc(C)c(C)c1 (repeat unit) | 42.00 °C
60 | *CCC(Cl)C(*)Cl (repeat unit) | 70.00 °C
61 | *O[Si](*)(C)c1c(F)c(F)c(F)c(F)c1F (repeat unit) | -25.00 °C
62 | *c1cc(CCCCCCOC(=O)Cc2ccccc2)c(*)s1 (repeat unit) | 45.00 °C
63 | *CC(C)CNC(=O)O* (repeat unit) | 40.00 °C
64 | *CC(C[N-][N+]#N)(C[N-][N+]#N)CO* (repeat unit) | -30.00 °C
65 | *CC(C)(CC)C(=O)O* (repeat unit) | -9.00 °C
66 | *CCCNC(=O)O* (repeat unit) | 26.00 °C
